Experimental data reported in PubChem BioAssay AID1259411 (Chemical Carcinogenesis Research Information System (CCRIS), 2018).
The source made the active and inactive calls. How the calls were made is not given here.

System: rodent carcinogenicity bioassays, tumor incidence
Assay: CCRIS carcinogenicity studies
Settings: Dose: 0, Dose: 0
Procedure, shortened: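 Archive of carcinogenicity, mutagenicity, tumor promotion and tumor inhibition results drawn from journals, NCI reports and other sources, expert-reviewed; covers 1985-2011 and is no longer updated.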

OCCCl
carcinogen call (Species: MOUSE, Strain/Sex: CD-1/FEMALE, Route: DERMAL, 7.5, 15 MG/ANIMAL IN 70% ETHANOL IN WATER 5 D/WK FOR 104 WK, 7.5, 15 MG/ANIMAL IN 70% ETHANOL IN WATER 5 D/WK FOR 104 WK): inactive; negative
carcinogen call (Species: MOUSE, Strain/Sex: CD-1/MALE, Route: DERMAL, 7.5, 15 MG/ANIMAL IN 70% ETHANOL IN WATER 5 D/WK FOR 104 WK, 7.5, 15 MG/ANIMAL IN 70% ETHANOL IN WATER 5 D/WK FOR 104 WK): inactive; negative
carcinogen call (Species: RAT, Strain/Sex: F344/FEMALE, Route: DERMAL, 50, 100 MG/KG IN 70% ETHANOL IN WATER 5 D/WK FOR 103 WK, 50, 100 MG/KG IN 70% ETHANOL IN WATER 5 D/WK FOR 103 WK): inactive; negative
carcinogen call (Species: RAT, Strain/Sex: F344/MALE, Route: DERMAL, 50, 100 MG/KG IN 70% ETHANOL IN WATER 5 D/WK FOR 103 WK, 50, 100 MG/KG IN 70% ETHANOL IN WATER 5 D/WK FOR 103 WK): inactive; negative

Nc1cc([N+](=O)[O-])ccc1C(=O)O
carcinogen call (Species: MOUSE, Strain/Sex: B6C3F1/FEMALE, Route: ORAL, 0.46, 1.0% OF DIET, TWA, 0.46, 1.0% OF DIET, TWA): inactive; negative
carcinogen call (Species: MOUSE, Strain/Sex: B6C3F1/MALE, Route: ORAL, 0.46, 1.0% OF DIET, TWA, 0.46, 1.0% OF DIET, TWA): inactive; negative
carcinogen call (Species: RAT, Strain/Sex: F344/FEMALE, Route: ORAL, 0.46, 1.5% OF DIET, TWA, 0.46, 1.5% OF DIET, TWA): inactive; negative
carcinogen call (Species: RAT, Strain/Sex: F344/MALE, Route: ORAL, 0.46, 1.5% OF DIET, TWA, 0.46, 1.5% OF DIET, TWA): inactive; negative

OC[C@H]1O[C@@H]2O[C@H]3[C@H](O)[C@@H](O)[C@@H](O[C@H]4[C@H](O)[C@@H](O)[C@@H](O[C@H]5[C@H](O)[C@@H](O)[C@@H](O[C@H]6[C@H](O)[C@@H](O)[C@@H](O[C@H]7[C@H](O)[C@@H](O)[C@@H](O[C@H]8[C@H](O)[C@@H](O)[C@@H](O[C@H]1[C@H](O)[C@H]2O)O[C@@H]8CO)O[C@@H]7CO)O[C@@H]6CO)O[C@@H]5CO)O[C@@H]4CO)O[C@@H]3CO
carcinogen call (Species: MOUSE, Strain/Sex: CD-1/FEMALE, Route: ORAL, 25, 75, 225, 675 MG/KG/D IN DIET FOR 105 WK (STUDY DURATION: 105 WK), 25, 75, 225, 675 MG/KG/D IN DIET FOR 105 WK (STUDY DURATION: 105 WK)): inactive; negative
carcinogen call (Species: MOUSE, Strain/Sex: CD-1/MALE, Route: ORAL, 25, 75, 225, 675 MG/KG/D IN DIET FOR 93 WK (STUDY DURATION: 93 WK), 25, 75, 225, 675 MG/KG/D IN DIET FOR 93 WK (STUDY DURATION: 93 WK)): inactive; negative
carcinogen call (Species: RAT, Strain/Sex: F344/FEMALE, Route: ORAL, 2.5, 5% IN DIET FOR 104 WK (STUDY DURATION: 109 WK), 2.5, 5% IN DIET FOR 104 WK (STUDY DURATION: 109 WK)): inactive; negative
carcinogen call (Species: RAT, Strain/Sex: F344/FEMALE, Route: ORAL, 25, 75, 225, 675 MG/KG/D IN DIET FOR 130 WK (STUDY DURATION: 130 WK), 25, 75, 225, 675 MG/KG/D IN DIET FOR 130 WK (STUDY DURATION: 130 WK)): inactive; negative
carcinogen call (Species: RAT, Strain/Sex: F344/MALE, Route: ORAL, 2.5, 5% IN DIET FOR 104 WK (STUDY DURATION: 109 WK), 2.5, 5% IN DIET FOR 104 WK (STUDY DURATION: 109 WK)): inactive; negative
carcinogen call (Species: RAT, Strain/Sex: F344/MALE, Route: ORAL, 25, 75, 225, 675 MG/KG/D IN DIET FOR 122 WK (STUDY DURATION: 122 WK), 25, 75, 225, 675 MG/KG/D IN DIET FOR 122 WK (STUDY DURATION: 122 WK)): inactive; negative

CC(O)C(=O)O (stereo not drawn)
carcinogen call (Species: RAT, Strain/Sex: F344/FEMALE, Route: ORAL, 2.5, 5% IN DRINKING WATER FOR 104 WK (MEAN TOTAL INTAKE 0; 237.7; 412.1 G/RAT) (STUDY DURATION: 113 WK), 2.5, 5% IN DRINKING WATER FOR 104 WK (MEAN TOTAL INTAKE 0; 237.7; 412.1 G/RAT) (STUDY DURATION: 113 WK)): inactive; negative
carcinogen call (Species: RAT, Strain/Sex: F344/MALE, Route: ORAL, 2.5, 5% IN DRINKING WATER FOR 104 WK (MEAN TOTAL INTAKE 0; 329.4; 625.4 G/RAT) (STUDY DURATION: 113 WK), 2.5, 5% IN DRINKING WATER FOR 104 WK (MEAN TOTAL INTAKE 0; 329.4; 625.4 G/RAT) (STUDY DURATION: 113 WK)): inactive; negative

O=C(c1ccccc1)c1ccccc1
carcinogen call (Species: Mouse, Strain/Sex: B6C3F1/Female, Route: Oral, 312, 625, 1250 ppm in feed for 105 wks, 312, 625, 1250 ppm in feed for 105 wks, Tumor Site: Type of Lesion: Histiocytic sarcoma: (0/50, 0/50, 5/50, 3/50) Liver: Hepatocellular adenoma (5/50, 4/50, 10/50, 8/50)): active; positive (ntp describes as some evidence); ntp describes results in liver as equ
carcinogen call (Species: Mouse, Strain/Sex: B6C3F1/Male, Route: Oral, 312, 625, 1250 ppm in feed for 105 wks, 312, 625, 1250 ppm in feed for 105 wks, Tumor Site: Type of Lesion: Liver: Hepatocellular adenoma (11/50, 15/50, 23/50, 23/50), Hepatocellular adenoma, hepatocellular carcinoma, or hepatob): active; positive (ntp describes as some evidence)
carcinogen call (Species: Rat, Strain/Sex: F344/N/Female, Route: Oral, 312, 625, 1250 ppm in feed for 105 wks, 312, 625, 1250 ppm in feed for 105 wks, Tumor Site: Type of Lesion: Mononuclear cell leukemia: (19/50, 25/50, 30/50, 29/50) Histiocytic sarcoma: (0/50, 0/50, 1/50, 2/50) Mammary gland: fib): equivocal; mononuclear cell leukemia and histiocytic sarcoma incidences describe
carcinogen call (Species: Rat, Strain/Sex: F344/N/Male, Route: Oral, 312, 625, 1250 ppm in feed for 105 wks, 312, 625, 1250 ppm in feed for 105 wks, Tumor Site: Type of Lesion: Kidney: Renal tubule adenoma (1/50, 1/10, 2/50, 4/50), Mononuclear cell leukemia: (27/50, 41/50, 39/50, 24/50)): active; positive trend for renal tubule adenoma (ntp describes as some evidence); mononu

Cc1cc(N=Nc2c(O)ccc3ccccc23)c(S(=O)(=O)O)cc1Cl
carcinogen call (Species: MOUSE, Strain/Sex: B6C3F1/FEMALE, Route: ORAL, 1000, 2000 PPM IN DIET FOR 103 WK (STUDY DURATION: 103 WK), 1000, 2000 PPM IN DIET FOR 103 WK (STUDY DURATION: 103 WK)): inactive; negative
carcinogen call (Species: MOUSE, Strain/Sex: B6C3F1/MALE, Route: ORAL, 1000, 2000 PPM IN DIET FOR 103 WK (STUDY DURATION: 103 WK), 1000, 2000 PPM IN DIET FOR 103 WK (STUDY DURATION: 103 WK)): inactive; negative
carcinogen call (Species: MOUSE, Strain/Sex: ICR/FEMALE, Route: DERMAL, 1 MG IN 0.1 ML DISTILLED WATER 2/WK FOR A MEAN TOTAL DOSE OF 134.7 MG (STUDY DURATION: 18 MO)): inactive; negative
carcinogen call (Species: MOUSE, Strain/Sex: ICR/MALE, Route: DERMAL, 1 MG IN 0.1 ML DISTILLED WATER 2/WK FOR A MEAN TOTAL DOSE OF 134.7 MG (STUDY DURATION: 18 MO)): inactive; negative
carcinogen call (Species: RAT, Strain/Sex: F344/FEMALE, Route: ORAL, 1000, 3000 PPM IN DIET FOR 103 WK (STUDY DURATION: 103 WK), 1000, 3000 PPM IN DIET FOR 103 WK (STUDY DURATION: 103 WK), Tumor Site: Type of Lesion: LIVER: NEOPLASTIC NODULE): equivocal
carcinogen call (Species: RAT, Strain/Sex: F344/FEMALE, Route: ORAL, 1000, 3000 PPM IN DIET FOR 103 WK (STUDY DURATION: 104 WK), 1000, 3000 PPM IN DIET FOR 103 WK (STUDY DURATION: 104 WK)): inactive; negative
carcinogen call (Species: RAT, Strain/Sex: F344/MALE, Route: ORAL, 1000, 3000 PPM IN DIET FOR 103 WK (STUDY DURATION: 103 WK), 1000, 3000 PPM IN DIET FOR 103 WK (STUDY DURATION: 103 WK), Tumor Site: Type of Lesion: SPLEEN: SARCOMA, LIVER: NEOPLASTIC NODULE): active; positive
carcinogen call (Species: RAT, Strain/Sex: F344/MALE, Route: ORAL, 1000, 3000 PPM IN DIET FOR 103 WK (STUDY DURATION: 104 WK), 1000, 3000 PPM IN DIET FOR 103 WK (STUDY DURATION: 104 WK), Tumor Site: Type of Lesion: SPLEEN OR PERITONEUM: SARCOMA): active; positive
